Test results: paper PMC12748989 (Nature Communications, 2025)

Key:
PBMC = conditions: 12.5 µM

## CC[C@H](C)[C@H](N)C(=O)N[C@@H](CC(N)=O)C(=O)N[C@@H](CC(C)C)C(=O)N[C@@H](CCCCN)C(=O)N[C@@H](C)C(=O)N[C@@H](CC(C)C)C(=O)N[C@@H](C)C(=O)N[C@@H](C)C(=O)N[C@@H](CC(C)C)C(=O)N[C@@H](C)C(=O)N[C@@H](CCCCN)C(=O)N1CCC[C@H]1C(=O)N[C@H](C(=O)N[C@@H](CC(C)C)C(N)=O)[C@@H](C)CC [P12]
MDA-MB-231 cells
  Average (percentage cell inhibition), Dmastoparan MDA-MB231 12.5uM: -19.0406%
PBMC
  Average (percentage cell inhibition), Mastoparan PBMC: -2.814%

## CC[C@H](C)[C@H](N)C(=O)N[C@@H](CC(N)=O)C(=O)N[C@@H](CC(C)C)C(=O)N[C@@H](CCCCN)C(=O)N[C@@H](C)C(=O)N[C@@H](CC(C)C)C(=O)N[C@@H](C)C(=O)N[C@@H](C)C(=O)N[C@@H](CC(C)C)C(=O)N[C@@H](C)C(=O)N[C@@H](C)C(=O)N[C@@H](CCCCN)C(=O)N[C@H](C(=O)N[C@@H](CC(C)C)C(N)=O)[C@@H](C)CC [A11]
MDA-MB-231 cells
  Average (percentage cell inhibition), Dmastoparan MDA-MB231 12.5uM: 45.8441%
PBMC
  Average (percentage cell inhibition), Mastoparan PBMC: 11.43%

## CC[C@H](C)[C@H](N)C(=O)N[C@@H](CC(N)=O)C(=O)N[C@@H](CC(C)C)C(=O)N[C@@H](CCCCN)C(=O)N[C@@H](C)C(=O)N[C@@H](CC(C)C)C(=O)N[C@@H](C)C(=O)N[C@@H](C)C(=O)N[C@@H](CC(C)C)C(=O)N[C@@H](CO)C(=O)N[C@@H](CCCCN)C(=O)N[C@@H](CCCCN)C(=O)N[C@H](C(=O)N[C@@H](CC(C)C)C(N)=O)[C@@H](C)CC [S10]
MDA-MB-231 cells
  Average (percentage cell inhibition), Dmastoparan MDA-MB231 12.5uM: 30.5653%
PBMC
  Average (percentage cell inhibition), Mastoparan PBMC: 1.271%

## CC[C@H](C)[C@H](N)C(=O)N[C@@H](CC(N)=O)C(=O)N[C@@H](CC(C)C)C(=O)N[C@@H](CCCCN)C(=O)N[C@@H](C)C(=O)N[C@@H](CC(C)C)C(=O)N[C@@H](C)C(=O)N[C@H](C(=O)N[C@@H](CC(C)C)C(=O)N[C@@H](C)C(=O)N[C@@H](CCCCN)C(=O)N[C@@H](CCCCN)C(=O)N[C@H](C(=O)N[C@@H](CC(C)C)C(N)=O)[C@@H](C)CC)C(C)C [V8]
MDA-MB-231 cells
  Average (percentage cell inhibition), Dmastoparan MDA-MB231 12.5uM: 43.0954%
PBMC
  Average (percentage cell inhibition), Mastoparan PBMC: 11.0844%

## CC[C@H](C)[C@H](N)C(=O)N[C@@H](CC(N)=O)C(=O)N[C@@H](CC(C)C)C(=O)N[C@H](C(=O)N[C@@H](C)C(=O)N[C@@H](CC(C)C)C(=O)N[C@@H](C)C(=O)N[C@@H](C)C(=O)N[C@@H](CC(C)C)C(=O)N[C@@H](C)C(=O)N[C@@H](CCCCN)C(=O)N[C@@H](CCCCN)C(=O)N[C@H](C(=O)N[C@@H](CC(C)C)C(N)=O)[C@@H](C)CC)C(C)C [V4]
MDA-MB-231 cells
  Average (percentage cell inhibition), Dmastoparan MDA-MB231 12.5uM: 32.9047%
PBMC
  Average (percentage cell inhibition), Mastoparan PBMC: 3.317%

## CC[C@H](C)[C@H](N)C(=O)N[C@@H](CC(N)=O)C(=O)N[C@@H](CC(C)C)C(=O)N[C@@H](Cc1c[nH]c2ccccc12)C(=O)N[C@@H](C)C(=O)N[C@@H](CC(C)C)C(=O)N[C@@H](C)C(=O)N[C@@H](C)C(=O)N[C@@H](CC(C)C)C(=O)N[C@@H](C)C(=O)N[C@@H](CCCCN)C(=O)N[C@@H](CCCCN)C(=O)N[C@H](C(=O)N[C@@H](CC(C)C)C(N)=O)[C@@H](C)CC [W4]
MDA-MB-231 cells
  Average (percentage cell inhibition), Dmastoparan MDA-MB231 12.5uM: 50.1282%
PBMC
  Average (percentage cell inhibition), Mastoparan PBMC: 30.4839%

## CC[C@H](C)[C@H](N)C(=O)N[C@H](C(=O)N[C@@H](CC(C)C)C(=O)N[C@@H](CCCCN)C(=O)N[C@@H](C)C(=O)N[C@@H](CC(C)C)C(=O)N[C@@H](C)C(=O)N[C@@H](C)C(=O)N[C@@H](CC(C)C)C(=O)N[C@@H](C)C(=O)N[C@@H](CCCCN)C(=O)N[C@@H](CCCCN)C(=O)N[C@H](C(=O)N[C@@H](CC(C)C)C(N)=O)[C@@H](C)CC)[C@@H](C)O [T2]
MDA-MB-231 cells
  Average (percentage cell inhibition), Dmastoparan MDA-MB231 12.5uM: 59.8803%
PBMC
  Average (percentage cell inhibition), Mastoparan PBMC: 20.7916%

## CC[C@H](C)[C@H](N)C(=O)N[C@H](C(=O)N[C@@H](CC(C)C)C(=O)N[C@@H](CCCCN)C(=O)N[C@@H](C)C(=O)N[C@@H](CC(C)C)C(=O)N[C@@H](C)C(=O)N[C@@H](C)C(=O)N[C@@H](CC(C)C)C(=O)N[C@@H](C)C(=O)N[C@@H](CCCCN)C(=O)N[C@@H](CCCCN)C(=O)N[C@H](C(=O)N[C@@H](CC(C)C)C(N)=O)[C@@H](C)CC)C(C)C [V2]
MDA-MB-231 cells
  Average (percentage cell inhibition), Dmastoparan MDA-MB231 12.5uM: 91.4206%
PBMC
  Average (percentage cell inhibition), Mastoparan PBMC: 65.6691%

## CC[C@H](C)[C@H](N)C(=O)N[C@@H](CC(N)=O)C(=O)N[C@@H](CC(C)C)C(=O)N[C@@H](CCCCN)C(=O)N[C@@H](CCCNC(=N)N)C(=O)N[C@@H](CC(C)C)C(=O)N[C@@H](C)C(=O)N[C@@H](C)C(=O)N[C@@H](CC(C)C)C(=O)N[C@@H](C)C(=O)N[C@@H](CCCCN)C(=O)N[C@@H](CCCCN)C(=O)N[C@H](C(=O)N[C@@H](CC(C)C)C(N)=O)[C@@H](C)CC [R5]
MDA-MB-231 cells
  Average (percentage cell inhibition), Dmastoparan MDA-MB231 12.5uM: 27.1833%
PBMC
  Average (percentage cell inhibition), Mastoparan PBMC: -0.4192%

## CC[C@H](C)[C@H](N)C(=O)N[C@@H](CC(N)=O)C(=O)N[C@@H](CC(C)C)C(=O)N[C@@H](CCCCN)C(=O)N[C@@H](C)C(=O)N[C@@H](CC(C)C)C(=O)N[C@@H](C)C(=O)N[C@@H](C)C(=O)N[C@@H](CC(C)C)C(=O)N[C@@H](CC(C)C)C(=O)N[C@@H](CCCCN)C(=O)N[C@@H](CCCCN)C(=O)N[C@H](C(=O)N[C@@H](CC(C)C)C(N)=O)[C@@H](C)CC [L10]
MDA-MB-231 cells
  Average (percentage cell inhibition), Dmastoparan MDA-MB231 12.5uM: 86.3514%
PBMC
  Average (percentage cell inhibition), Mastoparan PBMC: 52.7294%

## CC[C@H](C)[C@H](N)C(=O)N[C@@H](CC(N)=O)C(=O)N[C@@H](CC(C)C)C(=O)N[C@@H](CCCCN)C(=O)N[C@@H](C)C(=O)N[C@@H](CC(C)C)C(=O)N[C@@H](C)C(=O)N[C@@H](C)C(=O)N[C@@H](CC(C)C)C(=O)N[C@@H](C)C(=O)NCC(=O)N[C@@H](CCCCN)C(=O)N[C@H](C(=O)N[C@@H](CC(C)C)C(N)=O)[C@@H](C)CC [G11]
MDA-MB-231 cells
  Average (percentage cell inhibition), Dmastoparan MDA-MB231 12.5uM: 29.778%
PBMC
  Average (percentage cell inhibition), Mastoparan PBMC: 15.1682%

## CC[C@H](C)[C@H](N)C(=O)N[C@@H](CC(N)=O)C(=O)N[C@@H](CC(C)C)C(=O)N[C@@H](CCCCN)C(=O)N[C@@H](C)C(=O)N[C@@H](CC(C)C)C(=O)N[C@@H](C)C(=O)N[C@@H](C)C(=O)N[C@@H](CC(C)C)C(=O)N[C@@H](C)C(=O)N[C@@H](CCCCN)C(=O)N[C@@H](CCCCN)C(=O)N[C@H](C(=O)NCC(N)=O)[C@@H](C)CC [G14]
MDA-MB-231 cells
  Average (percentage cell inhibition), Dmastoparan MDA-MB231 12.5uM: 28.3643%
PBMC
  Average (percentage cell inhibition), Mastoparan PBMC: 3.069%

## CC[C@H](C)[C@H](N)C(=O)N[C@@H](CC(N)=O)C(=O)N[C@@H](CC(C)C)C(=O)N[C@@H](CCCCN)C(=O)N[C@@H](C)C(=O)N[C@@H](CC(C)C)C(=O)N[C@@H](C)C(=O)N[C@@H](C)C(=O)N[C@@H](CC(C)C)C(=O)N[C@@H](C)C(=O)N[C@@H](CCCCN)C(=O)N[C@@H](CCCCN)C(=O)N[C@@H](Cc1c[nH]cn1)C(=O)N[C@@H](CC(C)C)C(N)=O [H13]
MDA-MB-231 cells
  Average (percentage cell inhibition), Dmastoparan MDA-MB231 12.5uM: 24.5783%
PBMC
  Average (percentage cell inhibition), Mastoparan PBMC: -0.416%

## CC[C@H](C)[C@H](N)C(=O)N[C@@H](CC(N)=O)C(=O)N[C@@H](CC(C)C)C(=O)N[C@@H](CCCCN)C(=O)N[C@@H](C)C(=O)N[C@@H](CC(C)C)C(=O)N[C@@H](C)C(=O)NCC(=O)N[C@@H](CC(C)C)C(=O)N[C@@H](C)C(=O)N[C@@H](CCCCN)C(=O)N[C@@H](CCCCN)C(=O)N[C@H](C(=O)N[C@@H](CC(C)C)C(N)=O)[C@@H](C)CC [G8]
MDA-MB-231 cells
  Average (percentage cell inhibition), Dmastoparan MDA-MB231 12.5uM: 28.4057%
PBMC
  Average (percentage cell inhibition), Mastoparan PBMC: 1.421%

## CC[C@H](C)[C@H](N)C(=O)N[C@@H](CC(N)=O)C(=O)N[C@@H](CC(C)C)C(=O)N[C@@H](CCCCN)C(=O)N[C@@H](C)C(=O)N[C@@H](CC(C)C)C(=O)N[C@@H](C)C(=O)N[C@@H](C)C(=O)N1CCC[C@H]1C(=O)N[C@@H](C)C(=O)N[C@@H](CCCCN)C(=O)N[C@@H](CCCCN)C(=O)N[C@H](C(=O)N[C@@H](CC(C)C)C(N)=O)[C@@H](C)CC [P9]
MDA-MB-231 cells
  Average (percentage cell inhibition), Dmastoparan MDA-MB231 12.5uM: 35.5446%
PBMC
  Average (percentage cell inhibition), Mastoparan PBMC: -6.87%

## CC[C@H](C)[C@H](N)C(=O)N[C@@H](CC(N)=O)C(=O)N[C@@H](CC(C)C)C(=O)N[C@@H](CCCCN)C(=O)N[C@@H](C)C(=O)N[C@@H](CC(C)C)C(=O)N[C@@H](C)C(=O)N[C@@H](C)C(=O)N[C@@H](CCC(N)=O)C(=O)N[C@@H](C)C(=O)N[C@@H](CCCCN)C(=O)N[C@@H](CCCCN)C(=O)N[C@H](C(=O)N[C@@H](CC(C)C)C(N)=O)[C@@H](C)CC [Q9]
MDA-MB-231 cells
  Average (percentage cell inhibition), Dmastoparan MDA-MB231 12.5uM: 30.6331%
PBMC
  Average (percentage cell inhibition), Mastoparan PBMC: 2.087%

## CC[C@H](C)[C@H](N)C(=O)N[C@@H](CC(N)=O)C(=O)N[C@@H](CC(C)C)C(=O)N[C@@H](CCCCN)C(=O)N[C@@H](C)C(=O)NCC(=O)N[C@@H](C)C(=O)N[C@@H](C)C(=O)N[C@@H](CC(C)C)C(=O)N[C@@H](C)C(=O)N[C@@H](CCCCN)C(=O)N[C@@H](CCCCN)C(=O)N[C@H](C(=O)N[C@@H](CC(C)C)C(N)=O)[C@@H](C)CC [G6]
MDA-MB-231 cells
  Average (percentage cell inhibition), Dmastoparan MDA-MB231 12.5uM: 27.1038%
PBMC
  Average (percentage cell inhibition), Mastoparan PBMC: 3.256%

## CC[C@H](C)[C@H](N)C(=O)N[C@@H](CC(N)=O)C(=O)N[C@@H](CC(C)C)C(=O)N[C@@H](CCCCN)C(=O)N[C@@H](C)C(=O)N[C@@H](CC(C)C)C(=O)N[C@@H](C)C(=O)N[C@@H](C)C(=O)N[C@@H](CC(C)C)C(=O)N[C@@H](CCCCN)C(=O)N[C@@H](CCCCN)C(=O)N[C@@H](CCCCN)C(=O)N[C@H](C(=O)N[C@@H](CC(C)C)C(N)=O)[C@@H](C)CC [K10]
MDA-MB-231 cells
  Average (percentage cell inhibition), Dmastoparan MDA-MB231 12.5uM: 22.5673%
PBMC
  Average (percentage cell inhibition), Mastoparan PBMC: 0.05559%

## CC[C@H](C)[C@H](N)C(=O)N[C@@H](CC(N)=O)C(=O)N[C@@H](CC(C)C)C(=O)N[C@@H](CCCCN)C(=O)N[C@@H](C)C(=O)N[C@@H](CC(C)C)C(=O)N[C@@H](C)C(=O)N[C@@H](C)C(=O)N[C@@H](CC(C)C)C(=O)N[C@@H](C)C(=O)N[C@@H](CCCCN)C(=O)N[C@@H](CCCCN)C(=O)N[C@@H](CCC(=O)O)C(=O)N[C@@H](CC(C)C)C(N)=O [E13]
MDA-MB-231 cells
  Average (percentage cell inhibition), Dmastoparan MDA-MB231 12.5uM: 42.4043%
PBMC
  Average (percentage cell inhibition), Mastoparan PBMC: -2.907%
